Measured values reported in the Kinase Knowledgebase extract (Sharma et al. 2016).

Biological target: PIK3CA (human) (UniProt P42336)
Assay: Inhibition of PIK3CA Kinase Activity

Chain of PIK3CA (human) (P42336 whole entry, looked up): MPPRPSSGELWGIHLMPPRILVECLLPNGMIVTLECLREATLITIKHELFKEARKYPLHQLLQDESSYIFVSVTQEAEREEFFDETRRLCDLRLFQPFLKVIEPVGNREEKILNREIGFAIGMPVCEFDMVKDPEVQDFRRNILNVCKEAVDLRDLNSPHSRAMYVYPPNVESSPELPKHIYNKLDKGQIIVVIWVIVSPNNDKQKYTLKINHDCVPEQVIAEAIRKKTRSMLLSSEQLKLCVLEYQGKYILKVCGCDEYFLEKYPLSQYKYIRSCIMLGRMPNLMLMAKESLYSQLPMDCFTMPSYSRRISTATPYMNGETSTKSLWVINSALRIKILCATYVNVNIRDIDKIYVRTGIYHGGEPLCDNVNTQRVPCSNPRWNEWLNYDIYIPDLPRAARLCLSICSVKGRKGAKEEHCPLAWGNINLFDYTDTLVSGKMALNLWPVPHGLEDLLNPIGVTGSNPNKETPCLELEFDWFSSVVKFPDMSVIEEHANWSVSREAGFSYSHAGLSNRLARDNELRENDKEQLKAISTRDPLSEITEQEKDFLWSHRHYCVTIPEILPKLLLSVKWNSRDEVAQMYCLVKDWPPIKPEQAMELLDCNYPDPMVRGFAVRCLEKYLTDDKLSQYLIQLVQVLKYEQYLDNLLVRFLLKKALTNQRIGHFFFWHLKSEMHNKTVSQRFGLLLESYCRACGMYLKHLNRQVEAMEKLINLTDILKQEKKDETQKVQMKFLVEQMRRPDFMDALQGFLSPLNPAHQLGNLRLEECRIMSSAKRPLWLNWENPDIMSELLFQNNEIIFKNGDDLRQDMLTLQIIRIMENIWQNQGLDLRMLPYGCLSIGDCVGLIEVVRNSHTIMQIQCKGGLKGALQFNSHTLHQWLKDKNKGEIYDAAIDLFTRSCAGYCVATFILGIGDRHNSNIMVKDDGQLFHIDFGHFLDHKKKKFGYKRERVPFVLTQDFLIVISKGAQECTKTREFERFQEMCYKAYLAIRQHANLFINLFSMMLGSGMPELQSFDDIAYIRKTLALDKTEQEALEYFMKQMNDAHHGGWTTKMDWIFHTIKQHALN

IC50, < 1 µM:
CCc1nc(C)cn1-c1nc(-c2cccc3[nH]ccc23)nc(N2CCOCC2)n1
Cc1nccn1-c1nc(-c2cccc3[nH]ncc23)nc(N2CCOCC2)n1
OCc1cn(-c2nc(-c3cccc4[nH]ccc34)nc(N3CCOCC3)n2)cn1
Cc1cn(-c2nc(-c3cccc4[nH]ccc34)nc(N3CCOCC3)n2)cn1
N#CC=Cc1nccn1-c1nc(-c2cccc3[nH]ccc23)nc(N2CCOCC2)n1
Cc1nc2ccccc2n1-c1nc(-c2ccc(N)nc2)nc(N2CCOCC2)n1
c1ccc(Cc2nccn2-c2nc(-c3cccc4[nH]ccc34)nc(N3CCOCC3)n2)cc1
FC(F)(F)c1nc2ccccc2n1-c1nc(-c2cccc3[nH]ccc23)nc(N2CCOCC2)n1
Nc1ccc(-c2nc(N3CCOCC3)nc(-n3ccc(C(F)(F)F)n3)n2)cn1
CCc1nccn1-c1nc(-c2cnc(N)nc2)nc(N2CCOCC2)n1
COCCNC(=O)c1cc2ccccc2n1-c1nc(-c2cccc3[nH]ccc23)nc(N2CCOCC2)n1
CCc1nccn1-c1nc(-c2ccnc3[nH]ccc23)nc(N2CCOCC2)n1
Nc1ncc(-c2nc(N3CCOCC3)nc(-n3ccc(C(F)(F)F)n3)n2)cn1
C[C@H]1COCCN1c1nc(-c2cnc(N)nc2)nc(-n2c(C(F)F)nc3ccccc32)n1
CC(=O)Nc1ccc(-c2nc(N3CCOCC3)nc(-n3c(C)nc4ccccc43)n2)cn1
c1cc(-c2nc(N3CCOCC3)nc(-n3cnc(CN4CCCC4)c3)n2)c2cc[nH]c2c1
CCc1nccn1-c1nc(-c2cccc3[nH]ccc23)nc(N2CCOCC2)n1
Cc1nc2ccccc2n1-c1nc(-c2cc(O)cc(F)c2)nc(N2CCOCC2)n1
CCc1nc2ccccc2n1-c1nc(-c2cnc(N)nc2)nc(N2CCOCC2)n1
Cc1nccn1-c1nc(-c2cnc(N)nc2)nc(N2CCOCC2)n1
CCCc1nccn1-c1nc(-c2ccnc3[nH]ccc23)nc(N2CCOCC2)n1
CCCc1nccn1-c1nc(-c2cccc3[nH]ccc23)nc(N2CCOCC2)n1
COC(=O)CCc1nc2ccccc2n1-c1nc(-c2cccc3[nH]ccc23)nc(N2CCOCC2)n1
CCc1nc(C)c(CO)n1-c1nc(-c2cccc3[nH]ccc23)nc(N2CCOCC2)n1
CCCCN(C)Cc1cn(-c2nc(-c3cccc4[nH]ccc34)nc(N3CCOCC3)n2)c(C)n1
Cc1nc2ccccc2n1-c1nc(-c2cccc(CO)c2)nc(N2CCOCC2)n1
Cc1nccn1-c1nc(-c2cccc(O)c2)nc(N2CCOCC2)n1
CCCCc1nc2ccccc2n1-c1nc(-c2cccc3[nH]ccc23)nc(N2CCOCC2)n1
Nc1ncc(-c2nc(N3CCOCC3)nc(-n3ncc4c3CCCC4)n2)cn1
CCCCN(C)Cc1c(C)nc(CC)n1-c1nc(-c2cccc3[nH]ccc23)nc(N2CCOCC2)n1
C#Cc1cn(-c2nc(-c3cccc4[nH]ccc34)nc(N3CCOCC3)n2)c(CC)n1
CCCc1nc2ccccc2n1-c1nc(-c2cccc3[nH]ccc23)nc(N2CCOCC2)n1
Cc1nc(N)ncc1-c1nc(N2CCOCC2)nc(-n2ccnc2C(C)C)n1
Cc1nc2ccccc2n1-c1nc(-c2cccc3[nH]ccc23)nc(N2CCOCC2)n1
Nc1ccc2c(c1)nc(C(F)(F)F)n2-c1nc(-c2cccc3[nH]ccc23)nc(N2CCOCC2)n1
CCc1cn(-c2nc(-c3cccc4[nH]ccc34)nc(N3CCOCC3)n2)c(CC)n1
C=Cc1nccn1-c1nc(-c2cccc3[nH]ccc23)nc(N2CCOCC2)n1
Cc1nc(CO)cn1-c1nc(-c2cccc3[nH]ccc23)nc(N2CCOCC2)n1
c1cc(-c2nc(N3CCOCC3)nc(-n3ccnc3)n2)c2cc[nH]c2c1
N#CCCc1nccn1-c1nc(-c2cnc(N)nc2)nc(N2CCOCC2)n1
Oc1cccc(-c2nc(N3CCOCC3)nc(-n3c(C(F)F)nc4ccccc43)n2)c1
Nc1ccc(-c2nc(N3CCOCC3)nc(-n3ncc4c3CCCC4)n2)cn1
Cc1ccn(-c2nc(-c3cnc(N)nc3)nc(N3CCOCC3)n2)n1
Cc1nc(CN2CCCC2)cn1-c1nc(-c2cccc3[nH]ccc23)nc(N2CCOCC2)n1
Cc1nc(CNC2CC2)cn1-c1nc(-c2cccc3[nH]ccc23)nc(N2CCOCC2)n1
FC(F)c1nc2ccccc2n1-c1nc(-c2cccc3[nH]ccc23)nc(N2CCOCC2)n1
Cc1nccn1-c1nc(-c2cccc(CO)c2)nc(N2CCOCC2)n1
CC(C)c1nccn1-c1nc(-c2cnc(N)nc2)nc(N2CCOCC2)n1
Cc1cc(C(F)(F)F)n(-c2nc(-c3ccc(N)nc3)nc(N3CCOCC3)n2)n1
CCc1nc(C#Cc2ccccn2)cn1-c1nc(-c2cccc3[nH]ccc23)nc(N2CCOCC2)n1
Cc1cc(C)n(-c2nc(-c3cccc4[nH]ccc34)nc(N3CCOCC3)n2)n1
CC#Cc1cn(-c2nc(-c3cccc4[nH]ccc34)nc(N3CCOCC3)n2)c(CC)n1
CC(C)c1nccn1-c1nc(-c2cccc3[nH]ccc23)nc(N2CCOCC2)n1
c1ccc(-c2nccn2-c2nc(-c3cccc4[nH]ccc34)nc(N3CCOCC3)n2)cc1
CCCCc1nccn1-c1nc(-c2cccc3[nH]ccc23)nc(N2CCOCC2)n1
CC(C)c1nc2ccccc2n1-c1nc(-c2cnc(N)nc2)nc(N2CCOCC2)n1
O=C(NC1CC1)c1cc2ccccc2n1-c1nc(-c2cccc3[nH]ccc23)nc(N2CCOCC2)n1
Cc1nc2ccccc2n1-c1nc(-c2cccc(O)c2)nc(N2CCOCC2)n1
CC(C)c1nc2ccccc2n1-c1nc(-c2cccc3[nH]ccc23)nc(N2CCOCC2)n1
Nc1ncc(-c2nc(N3CCOCC3)nc(-n3c(C(F)F)nc4ccccc43)n2)cn1
Cc1cc(C(F)(F)F)n(-c2nc(-c3cnc(N)nc3)nc(N3CCOCC3)n2)n1
Cc1nccn1-c1nc(-c2cccc3[nH]ccc23)nc(N2CCOCC2)n1
CCN(CC)CCN(C)Cc1cn(-c2nc(-c3cccc4[nH]ccc34)nc(N3CCOCC3)n2)cn1
Cc1ccn(-c2nc(-c3cccc4[nH]ccc34)nc(N3CCOCC3)n2)n1
Cc1cc(C)n(-c2nc(-c3ccc(N)nc3)nc(N3CCOCC3)n2)n1
CCCCc1nccn1-c1nc(-c2cnc(N)nc2)nc(N2CCOCC2)n1
Cc1nc2ccccc2n1-c1nc(-c2cnc(N)nc2)nc(N2CCOCC2)n1
N#CCCc1nccn1-c1nc(-c2cccc3[nH]ccc23)nc(N2CCOCC2)n1
CCCc1nc2ccccc2n1-c1nc(-c2cnc(N)nc2)nc(N2CCOCC2)n1
c1ccc2c(c1)nc(C1CC1)n2-c1nc(-c2cccc3[nH]ccc23)nc(N2CCOCC2)n1
Cc1ccc2c(c1)ncn2-c1nc(-c2cccc3[nH]ccc23)nc(N2CCOCC2)n1
CCCCc1nc2ccccc2n1-c1nc(-c2cnc(N)nc2)nc(N2CCOCC2)n1
CCCc1cn(-c2nc(-c3cccc4[nH]ccc34)nc(N3CCOCC3)n2)c(CC)n1
COc1nc(N)ncc1-c1nc(N2CCOCC2)nc(-n2ccnc2C)n1
COCCNCc1cn(-c2nc(-c3cccc4[nH]ccc34)nc(N3CCOCC3)n2)c(C)n1
O=C(O)c1cc2ccccc2n1-c1nc(-c2cccc3[nH]ccc23)nc(N2CCOCC2)n1
CC(C)Cc1nccn1-c1nc(-c2cccc3[nH]ccc23)nc(N2CCOCC2)n1
CCc1nc2ccccc2n1-c1nc(-c2cccc3[nH]ccc23)nc(N2CCOCC2)n1
Cc1ccn(-c2nc(-c3ccc(N)nc3)nc(N3CCOCC3)n2)n1
